# Reference: the supplement of paper PMC11368000
# Key:
# Conditions in all cases: exposure time: 90 min
# 1083 = donor line of iPSC-derived cardiomyocytes; test: POD (EC05) for decrease in beat frequency (negative chronotrope) vs vehicle; higher = less potent (higher point of departure)
# Procedure: (§1)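 Human iPSC-derived cardiomyocytes from 16 donors were exposed for 90 min at 37 °C to each PFAS at 0.1, 1, 10 and 100 µM in 0.5% DMSO, 384-well plates. Kinetic Ca2+ flux (FLIPR) and Hoechst nuclei counts were normalised to vehicle wells and fitted with a hierarchical Bayesian Hill model to give donor-specific PODs: EC05 for beat-rate increase or decrease and for decay-to-rise ratio increase (QT proxy), EC95 for peak-frequency loss (asystole), EC10 for total cell number loss. 0.03 µM is the lower bound.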
# 1118 = donor line of iPSC-derived cardiomyocytes; test: as above
# Procedure: as §1
# 11235 = donor line of iPSC-derived cardiomyocytes; test: as above
# Procedure: as §1
# 1309 = donor line of iPSC-derived cardiomyocytes; test: as above
# Procedure: as §1
# 1368 = donor line of iPSC-derived cardiomyocytes; test: as above
# Procedure: as §1
# 1392 = donor line of iPSC-derived cardiomyocytes; test: as above
# Procedure: as §1
# 1434 = donor line of iPSC-derived cardiomyocytes; test: as above
# Procedure: as §1
# 1516 [1] = donor line of iPSC-derived cardiomyocytes; test: as above
# Procedure: as §1
# 1518 [2] = donor line of iPSC-derived cardiomyocytes; test: as above
# Procedure: as §1
# 1531 [3] = donor line of iPSC-derived cardiomyocytes; test: as above
# Procedure: as §1
# 1535 = donor line of iPSC-derived cardiomyocytes; test: as above
# Procedure: as §1
# 1565 = donor line of iPSC-derived cardiomyocytes; test: as above
# Procedure: as §1
# 20032 = donor line of iPSC-derived cardiomyocytes; test: as above
# Procedure: as §1
# 20084 = donor line of iPSC-derived cardiomyocytes; test: as above
# Procedure: as §1
# 30145 [4] = donor line of iPSC-derived cardiomyocytes; test: as above
# Procedure: as §1
# 30171 = donor line of iPSC-derived cardiomyocytes; test: as above
# Procedure: as §1
# 1518 [5] = test: POD (EC05) for increase in Ca2+ transient decay-to-rise ratio (QT prolongation) vs vehicle; higher = less potent (higher point of departure)
# How it was run: (§2)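 Ca2+ flux in human iPSC-derived cardiomyocytes from 16 donors was recorded on a FLIPR Tetra for 100 s before and after a 90 min exposure at 37 °C to 0.1, 1, 10 and 100 µM (final, 0.5% DMSO). Donor-specific points of departure came from hierarchical Bayesian Hill fits to vehicle-normalised beat frequency, decay-to-rise ratio or peak frequency. A 5% change served as threshold, except for peak frequency, where it was a 95% loss.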
# 1531 [6] = test: as above
# How it was run: as §2
# 30145 [7] = test: POD (EC05) for increase in beat frequency (positive chronotrope) vs vehicle; higher = less potent (higher point of departure)
# How it was run: as §2
# 1516 [8] = test: POD (EC05) for increase in Ca2+ transient decay-to-rise ratio (QT prolongation) vs vehicle; higher = less potent (higher point of departure)
# How it was run: as §2
SMILES,POD vs vehicle 1083 [µM],POD vs vehicle 1118 [µM],POD vs vehicle 11235 [µM],POD vs vehicle 1309 [µM],POD vs vehicle 1368 [µM],POD vs vehicle 1392 [µM],POD vs vehicle 1434 [µM],POD vs vehicle 1516 [1] [µM],POD vs vehicle 1518 [2] [µM],POD vs vehicle 1531 [3] [µM],POD vs vehicle 1535 [µM],POD vs vehicle 1565 [µM],POD vs vehicle 20032 [µM],POD vs vehicle 20084 [µM],POD vs vehicle 30145 [4] [µM],POD vs vehicle 30171 [µM],POD vs vehicle 1518 [5] [µM],POD vs vehicle 1531 [6] [µM],POD vs vehicle 30145 [7] [µM],POD vs vehicle 1516 [8] [µM]
NC(=O)C(F)(F)C(F)(F)C(F)(F)C(F)F,> 100,> 100,> 100,> 100,> 100,> 100,> 100,> 100,> 100,> 100,> 100,> 100,> 100,> 100,> 100,> 100,0.19,2.04,–,–
"OCC(O)CC(F)(F)C(F)(F)C(F)(F)C(F)(F)C(F)(F)C(F)(F)C(F)(F)C(F)(F)F (stereo unspecified) [1-(Perfluorofluorooctyl)propane-2,3-diol]",24.4,0.258,> 100,> 100,> 100,> 100,> 100,> 100,> 100,> 100,> 100,> 100,> 100,> 100,> 100,> 100,> 100,> 100,> 100,> 100
CC(O)C(F)(F)C(F)(F)F (stereo unspecified) [1-Pentafluoroethylethanol],> 100,> 100,> 100,> 100,> 100,> 100,> 100,> 100,> 100,> 100,> 100,> 100,> 100,> 100,> 100,> 100,> 100,> 100,> 100,> 100
"O=C(O)CCC(F)(F)C(F)(F)C(F)(F)C(F)(F)C(F)(F)F [2H,2H,3H,3H-Perfluorooctanoic_acid]",39.6,20,16.9,37.7,> 100,20.4,23.8,21.1,> 100,24.9,75.1,> 100,29.8,20,22.2,21.8,> 100,17,> 100,43.9
"O=C(O)C=C(C(F)(F)F)C(F)(F)F [3,3-Bis(trifluoromethyl)-2-propenoic_acid]",> 100,> 100,> 100,> 100,> 100,> 100,> 100,> 100,> 100,> 100,> 100,> 100,> 100,> 100,> 100,> 100,> 100,> 100,> 100,> 100
O=C(O)C=CC(F)(C(F)(F)F)C(F)(F)F [3-(Perfluoroisopropyl)-2-propenoic_acid],> 100,> 100,> 100,> 100,> 100,> 100,> 100,> 100,> 100,> 100,> 100,> 100,> 100,> 100,> 100,> 100,> 100,> 100,> 100,> 100
O=C(O)CCC(F)(F)C(F)(F)C(F)(F)C(F)(F)C(F)(F)C(F)(F)C(F)(F)F [3-Perfluoroheptylpropanoic_acid],> 100,13.8,20.2,> 100,> 100,> 100,21,56.9,> 100,80.7,> 100,> 100,> 100,> 100,> 100,24.9,> 100,25.4,> 100,> 100
O=C(O)CCC(F)(F)C(F)(F)C(F)(F)F [3:3 Fluorotelomer carboxylic acid],> 100,> 100,> 100,> 100,> 100,> 100,> 100,> 100,> 100,> 100,> 100,> 100,> 100,> 100,> 100,> 100,–,> 100,> 100,–
O=S(=O)(O)CCC(F)(F)C(F)(F)C(F)(F)C(F)(F)F [4:2 Fluorotelomer sulfonic acid],> 100,> 100,> 100,> 100,> 100,> 100,> 100,> 100,> 100,> 100,> 100,> 100,> 100,> 100,> 100,> 100,> 100,> 100,–,> 100
OCCC(F)(F)C(F)(F)C(F)(F)C(F)(F)C(F)(F)C(F)(F)F [6:2 Fluorotelomer alcohol],58.7,31.5,> 100,> 100,> 100,> 100,> 100,> 100,> 100,> 100,> 100,> 100,> 100,> 100,> 100,> 100,> 100,> 100,> 100,> 100
O=S(=O)(O)CCC(F)(F)C(F)(F)C(F)(F)C(F)(F)C(F)(F)C(F)(F)F [6:2 Fluorotelomer sulfonic acid],> 100,12.8,6.84,> 100,> 100,> 100,> 100,33.5,42.6,25.1,> 100,39.6,> 100,> 100,> 100,24.5,> 100,> 100,> 100,> 100
OCCC(F)(F)C(F)(F)C(F)(F)C(F)(F)C(F)(F)C(F)(F)C(F)(F)C(F)(F)F [8:2 Fluorotelomer alcohol],> 100,> 100,> 100,> 100,> 100,> 100,> 100,> 100,> 100,> 100,> 100,> 100,> 100,> 100,> 100,> 100,> 100,> 100,> 100,> 100
O=S(=O)(O)CCC(F)(F)C(F)(F)C(F)(F)C(F)(F)C(F)(F)C(F)(F)C(F)(F)C(F)(F)F [8:2 Fluorotelomer sulfonic acid],> 100,> 100,0.121,33.9,> 100,> 100,12.8,6.6,65.7,1.06,60.9,9.96,34.5,0.768,15.3,6.39,> 100,47.4,> 100,38
O=C(O)C(F)(F)C(F)(F)C(F)(F)C(F)(F)C(F)(F)C(F)(F)C(F)(F)C(F)(F)Cl [9-Chloro-perfluorononanoic_acid],> 100,13.1,2.23,84.3,> 100,> 100,10.9,14.9,> 100,> 100,39.9,> 100,44.8,> 100,> 100,6.24,> 100,> 100,> 100,> 100
CN(CCO)S(=O)(=O)C(F)(F)C(F)(F)C(F)(F)C(F)(F)C(F)(F)C(F)(F)C(F)(F)C(F)(F)F [N-Methyl-N-(2-hydroxyethyl)perfluorooctanesulfonamide],16.9,–,35.4,> 100,> 100,> 100,42.2,> 100,> 100,> 100,> 100,> 100,> 100,> 100,> 100,20.2,> 100,> 100,> 100,> 100
"O=C(O)C(F)(F)OC(F)(F)C(F)(F)OC(F)(F)F [Perfluoro-3,6-dioxaheptanoic_acid]",> 100,> 100,> 100,> 100,> 100,> 100,> 100,> 100,> 100,> 100,> 100,> 100,> 100,> 100,> 100,> 100,–,> 100,–,–
O=S(=O)(O)C(F)(F)C(F)(F)C(F)(F)C(F)(F)F [Perfluorobutanesulfonic_acid],> 100,> 100,41.4,> 100,> 100,> 100,> 100,29.7,> 100,> 100,> 100,> 100,> 100,> 100,> 100,73.6,> 100,> 100,–,39.7
O=C(O)C(F)(F)C(F)(F)C(F)(F)C(F)(F)C(F)(F)C(F)(F)C(F)(F)C(F)(F)F [Perfluorononanoic_acid],> 100,11,2.8,35.2,> 100,> 100,20,20.4,51.1,40.2,31.8,> 100,27.9,> 100,> 100,7.86,–,> 100,–,–
O=C(O)C(F)(F)C(F)(F)C(F)(F)C(F)(F)C(F)(F)C(F)(F)C(F)(F)C(F)(F)C(F)(F)C(F)(F)F [Perfluoroundecanoic_acid],> 100,> 100,0.395,> 100,> 100,> 100,> 100,–,1.19,> 100,> 100,> 100,> 100,> 100,> 100,0.96,17.4,> 100,> 100,> 100
